Test results reported in paper PMC12040169 (PLOS Biology, 2025).

experiment: in vitro; details: human, hela cells, % viability

Row | Compound | viability at 28.5 h, 10 µM
1 | CCn1c(CC2CCN(c3ncc(C#N)c(N)n3)CC2)nn(C)c1=O [CBK306788] | 93.3%
2 | CC(=O)N1CCc2sccc2C1c1ccc(NC(=O)c2ccccc2F)cc1 (stereo not drawn) [CBK286433] | 84.2%
3 | CCc1nc2c(OCC=C(C)C)cccn2c1N(C)C(=O)c1cccc(OC)c1 [CBK147448] | 94.3%
4 | C[C@H](NC(=O)C1CCN(C(=O)OC(C)(C)C)CC1)C(=O)O [CBK286730] | 78.9%
5 | COc1ccc(C(NC(=O)C2CCN(C(=O)C(C)(C)C)CC2)c2cnccn2)cc1 (stereo not drawn) [CBK059791] | 97%
6 | O=C(O)CCSC1=CCS(=O)(=O)c2ccc(Cl)cc21 [CBK013721] | 114%
7 | Cc1ccc2ccccc2c1CN(/N=N/c1nonc1C)c1nonc1C [CBK262412] | 99.6%
8 | COc1cccc(C(=O)N2CCC(NC(=O)c3cc(F)ccc3F)CC2)c1 [CBK155026] | 99.4%
9 | FC(F)(F)c1cc(-c2cc(N3CCC(N4CCCCC4)CC3)ncn2)cc(C(F)(F)F)c1 [CBK037692] | 92.6%
10 | CC(C)c1ccc(S(=O)(=O)N2CCN(c3ccc(C#N)cc3)CC2)cc1 [CBK044404] | 97.3%
11 | COc1ccc(CNC(=O)N(C)C2CCN(C)C2)cc1OC (stereo not drawn) [CBK156020] | 97.6%
12 | Clc1cc(Cl)c2[nH]c3c(c2c1)CCc1nonc1-3 [CBK025929] | 102%
13 | NC1=C2NN(c3ccc(Cl)cc3Cl)N=C2N(c2ccccc2)N1 [CBK107773] | 98.1%
14 | CS(=O)(=O)c1nnn(CC#N)n1 [CBK026075] | 90%
15 | Cc1ccc(C2=CCN(CC(N)=O)CC2)o1 [CBK283570] | 98.3%
16 | Cc1cc(S(=O)(=O)N2CCCC2)ccc1OCC(=O)NCc1ccncc1 [CBK269886] | 91.3%
17 | CS(=O)(=O)Nc1nccnc1N1CCN(C(=O)c2ccno2)CC1 [CBK048861] | 107%
18 | Cc1noc(C)c1NC(=O)c1ccnc2ccccc12 [CBK200302] | 96.3%
19 | CC(NC(=O)c1cccc(-n2cnnc2)c1)c1ccc2c(c1)CCC2 (stereo not drawn) [CBK282707] | 91.9%
20 | Cc1cc(C)n(CC2CCCCN2Cc2ccccn2)n1 (stereo not drawn) [CBK304853] | 86.7%
21 | CCN(Cc1ccncc1)C(=O)NC(C)c1ccccc1 (stereo not drawn) [CBK155156] | 101%
22 | CCOC(=O)CN1N=C(C)C(Cc2c(Cl)cccc2Cl)(OC)C1=O (stereo not drawn) [CBK112646] | 98.1%
23 | CCN1C(=O)C2(CC(=O)N(CCCCC(C)C)C2=O)c2cc(C)ccc21 (stereo not drawn) [CBK075173] | 103%

Row | Compound | viability at 28.5 h, 10 µM
24 | Cn1nccc1-c1cc(C(=O)NC2(C)CCC2)c2ccccc2n1 [CBK281605] | 92.7%
25 | O=C1CCC(=O)N1CCOc1nccnc1OC1CCN(Cc2ccc(Cl)c(Cl)c2)CC1 [CBK084335] | 96.2%
26 | O=C(c1ccco1)N1CCN(c2ccc(-c3ccc(F)c(Cl)c3)cn2)CC1 [CBK037683] | 93.9%
27 | Cc1cc2c(=O)n(Cc3ccco3)c(SCc3nc4ccccc4[nH]3)nc2s1 [CBK268202] | 88.2%
28 | CC(C)(C)C1CCC(OC(=O)Cn2nnc3ccccc3c2=O)CC1 (stereo not drawn) [CBK306408] | 88.9%
29 | Cn1c(=O)[nH]c(=O)c2c(-c3ccccc3)ccnc21 [CBK288136] | 72%
30 | O=C(Nc1cccnc1)N1CCN(c2ccc(F)cc2)CC1 [CBK156427] | 92.7%
31 | O=C(Nc1ccccc1)Nc1ccc(=O)n2c1[C@@H]1C[C@@H](CN(C(=O)c3ccc(F)cc3)C1)C2 [CBK288714] | 104%
32 | O=C(Cn1cc(-c2ccc(CN3CCCCC3)cc2)nn1)NCc1ccc(OC(F)F)cc1 [CBK167514] | 96%
33 | Cc1cc(C)nc(N(C#N)CC(=O)c2ccc(Br)cc2)n1 [CBK266562] | 91.3%
34 | CC(SCC(=O)Nc1ccc(F)cc1)c1nc2ccccc2c(=O)[nH]1 (stereo not drawn) [CBK269200] | 105%
35 | O=C(N[C@@H](Cc1ccc(O)cc1)C(=O)O)OCc1ccccc1 [CBK287012] | 94.8%
36 | CN(C)CCCOc1nccnc1N1CCCC1 [CBK113427] | 89.6%
37 | Cc1cc(NC(=O)CSc2nnc(-c3ccccc3)o2)no1 [CBK287389] | 96.2%
38 | c1ccc(-n2cc(-c3cncn3CCCN3CCCCC3)cn2)cc1 [CBK281465] | 92.4%
39 | N#CCCNCC1COc2ccccc2O1 (stereo not drawn) [CBK026615] | 97.7%
40 | Clc1ccc(COc2nccnc2OC2CCN(Cc3ccc4c(c3)OCO4)CC2)cc1Cl [CBK083109T] | 86.6%
41 | COc1ccc(C(=O)Nc2ccc3oc(-c4cccc(C)c4)nc3c2)cc1Br [CBK261944] | 100%
42 | CC(=O)N1CCN(C(=O)Cn2ccc3ccccc32)CC(O)C1 (stereo not drawn) [CBK307552] | 98.1%
43 | CN(C)CCNC(=O)c1cccc(-c2cnc(N)c(N3CCN(C)CC3)n2)c1 [CBK063393] | 95%
44 | O=C1c2ccccc2C2(c3ccccc3)NCCN12 (stereo not drawn) [CBK067098] | 101%
45 | CCCC(=O)Nc1c(F)cc(F)cc1OC1CCNCC1 [CBK045892T] | 91.1%
46 | O=C(C1CCCC1)N1CC(n2nc(-c3ccccc3)ccc2=O)C1 [CBK284617] | 93.9%

Row | Compound | viability at 28.5 h, 10 µM
47 | O=C(Nc1ccccc1[N+](=O)[O-])C1Cc2ccccc2CN1S(=O)(=O)c1ccc(F)cc1 (stereo not drawn) [CBK266129] | 102%
48 | CCN(Cc1cn2ccc(C)cc2n1)CC1CCOCC1 [CBK306680] | 89.7%
49 | NS(=O)(=O)c1ccc(NC(=S)NC(=O)c2cccc3c(Cl)cccc23)cc1 [CBK268814] | 99.5%
50 | CCCS(=O)(=O)N1CCN(Cc2cc(Br)ccc2O)CC1 [CBK264165G] | 102%
51 | Cc1cc(-c2nccnc2NCc2ccccn2)cc(C)c1O [CBK036921] | 94.2%
52 | CCN1CCN(S(=O)(=O)c2ccc(Br)cc2)CC1 [CBK100197] | 99.7%
53 | O=C1CCCN1CCC(=O)N1CCCC1c1nc2ccccc2[nH]1 (stereo not drawn) [CBK283981] | 84.2%
54 | CN(CCOC(=O)c1cccnc1)C(C)(C)C [CBK027543C] | 88.8%
55 | O=C(CC1Nc2ccccc2NC1=O)Nc1cccc(C(=O)O)c1 (stereo not drawn) [CBK263155] | 102%
56 | COc1ccc(C(=O)N2CCC3(CCCN(C(=O)c4c(F)cccc4F)C3)C2)cc1OC (stereo not drawn) [CBK131669] | 94.1%
57 | OCCC1CNCCN1Cc1ccc(F)c(F)c1 (stereo not drawn) [CBK269824] | 85.6%
58 | Nc1ncnc2c1C(c1ccc(Cl)cc1)c1c(ccc3ccccc13)O2 (stereo not drawn) [CBK263938] | 101%
59 | COc1ccc([C@@]23CC[C@@H](NC(=O)Nc4cccc(C(F)(F)F)c4F)C[C@@H]2CN(C)C3)cc1OC [CBK063195A] | 98.5%
60 | O=C(O)CCCC(=O)Nc1ccc(Cc2ccncc2)cc1 [CBK300493] | 93.1%
61 | COc1ccccc1-c1nccnc1OC [CBK106811] | 93.7%
62 | CCNC(=O)c1ccc(-c2ccc(S(C)(=O)=O)cc2)nc1 [CBK158882] | 91.9%
63 | CCN(CC)C(=O)C1CCCN(C(=O)NCCCN2CCN(C)CC2)C1 (stereo not drawn) [CBK156115] | 89.7%
64 | CCOC(=O)C1CCCN(C(=O)Cn2ncc(Cl)c(Cl)c2=O)C1 (stereo not drawn) [CBK305573] | 47.7%
65 | O=C(O)C1C2C=CC(C2)C1C(=O)NCc1ccncc1 (stereo not drawn) [CBK265403] | 102%
66 | COc1ccc(-n2c(S)nnc2-c2cc(C(C)(C)C)n[nH]2)cc1 [CBK269071] | 97.9%
67 | CC(Cn1cnc2ccccc21)C(=O)N1CCCCC1CN(C)C (stereo not drawn) [CBK282191] | 106%
68 | CC(Sc1nc2c(N)ncnc2[nH]1)C(=O)O (stereo not drawn) [CBK261814] | 106%
69 | NS(=O)(=O)c1ccc(NC(=O)CSc2ccc3ccccc3n2)cc1 [CBK265663] | 74.6%

Row | Compound | viability at 28.5 h, 10 µM
70 | O=C(CCn1cnc2ccccc2c1=O)Nc1ccc(S(=O)(=O)N2CCCC2)cc1 [CBK267642] | 93%
71 | c1csc(-c2nnc(C3CCN(Cc4ccsc4)CC3)o2)c1 [CBK285309] | 102%
72 | O=C(Nc1ncnc2nc[nH]c12)NC1CCCCC1 [CBK022860] | 97.7%
73 | CN(C)CCN1C(=O)C2C3c4ccccc4C([N+](=O)[O-])(c4ccccc43)C2C1=O (stereo not drawn) [CBK269286] | 81.4%
74 | CCOC(=O)C1(C2CCCCC2)CCN(C(=O)c2ccc(S(N)(=O)=O)cc2)CC1 [CBK137105] | 93.2%
75 | Cc1ccc(OCC(=O)Nc2ncn(Cc3cccnc3)n2)cc1 [CBK304888] | 85%
76 | O=C(O)c1ccc(/C=N/NC(=O)c2ccco2)cc1 [CBK263569] | 90.5%
77 | Cc1ccn(-c2ccc(N3CCNCC3)nn2)n1 [CBK304680] | 97.4%
78 | CCn1cc(C2CN(S(=O)(=O)c3cc(C)c(OC)cc3C)CCO2)cn1 (stereo not drawn) [CBK304225] | 84.9%
79 | O=C(Nc1ccc(Cl)c(Cl)c1)N1CCN(c2n[nH]c(=O)[nH]c2=O)CC1 [CBK297514] | 89.4%
80 | O=S(=O)(Nc1nnn[nH]1)c1ccc(-c2ccccn2)s1 [CBK062589] | 106%
81 | COc1ccccc1Cc1cccc(C2CCCN2C(=O)Cc2c[nH]c3ccccc23)n1 (stereo not drawn) [CBK286139] | 95.2%
82 | COC(=O)c1nn(C(=O)N(C)C)c(C)c1Br [CBK005077] | 88.5%
83 | CC(C)CCN[C@H]1CO[C@H]2[C@@H]1OC[C@@H]2n1nnnc1-c1ccccc1 [CBK289537] | 88.1%
84 | O=c1c2ccccc2nc2n1CCN(Cc1ccc(F)cc1)CC2 [CBK284814] | 96.9%
85 | O=C(c1ccc(F)cc1)[C@H]1CCCN(C(=O)C2CC2)C1 [CBK284326] | 90.5%
86 | Nc1ncc(-c2ccco2)nc1NCC1CCOCC1 [CBK063825] | 100%
87 | CCOc1cc(NC2CCN(C(=O)C3CCCCC3(C)C)CC2)ncn1 (stereo not drawn) [CBK305505] | 105%
88 | O=C(c1ccc(F)cc1)[C@H]1CCCN(C(=O)c2cc[nH]n2)C1 [CBK284331] | 87.3%
89 | Cc1ccc(S(=O)(=O)N(C)CC(=O)Nc2ncc(C(F)(F)F)cc2Cl)cc1 [CBK266729] | 94.8%

same assay, conditions: human, hela cells, % viability, bulk resorufin, single well

Row | Compound | viability at 28.5 h, 10 µM
90 | O=[N+]([O-])c1ccc2c(c1)COC1(CCNCC1)O2 [CBK116644] | 83.7%
